Assay results taken from PubChem BioAssay (NCI).
Values joined by “and” are separate entries in the source; they are usually repeats but may differ in a detail not shown here. Identical values can stand only once.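 Results reflect a 48-hour exposure of cells in 96-well plates to compound at five concentrations. GI50 is the concentration that inhibits growth by half. TGI is the concentration that stops growth completely.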

Experiments:
Experiment in all cases: NCI tumour cell line growth inhibition, 48 h
BT-549 breast = system: BT-549 breast
K-562 leukemia = system: K-562 leukemia
MDA-MB-435 = system: MDA-MB-435
NCI-H226 lung = system: NCI-H226 lung
NCI-H23 lung = system: NCI-H23 lung
OVCAR-3 ovarian = system: OVCAR-3 ovarian
OVCAR-4 ovarian = system: OVCAR-4 ovarian
RPMI-8226 leukemia = system: RPMI-8226 leukemia
SF-295 CNS = system: SF-295 CNS
MALME-3M melanoma = system: MALME-3M melanoma

Structure (SMILES) | TGI (BT-549 breast) | TGI (K-562 leukemia) | TGI (MDA-MB-435) | TGI (NCI-H226 lung) | TGI (NCI-H23 lung) | TGI (OVCAR-3 ovarian) | TGI (OVCAR-4 ovarian) | TGI (RPMI-8226 leukemia) | TGI (SF-295 CNS) | TGI (MALME-3M melanoma) | GI50 (K-562 leukemia) | GI50 (MALME-3M melanoma) | GI50 (MDA-MB-435) | GI50 (NCI-H226 lung) | GI50 (NCI-H23 lung) | GI50 (OVCAR-3 ovarian) | GI50 (OVCAR-4 ovarian) | GI50 (RPMI-8226 leukemia) | GI50 (SF-295 CNS) | GI50 (BT-549 breast)
O=c1c2[nH]cnc2n(-c2ccccc2)c(=S)n1-c1ccccc1 | > 100 µM | > 100 µM | > 100 µM | > 100 µM | > 100 µM | > 100 µM | > 100 µM | > 100 µM | > 100 µM | – | – | – | – | – | – | – | – | – | – | –
COCc1cc2c(s1)C(=O)C1=C(C2=O)C2(C=C(Br)C(=O)C(Br)=C2)CCN1 | – | 9.32 µM | 2.94 µM | 26.7 µM | 9.51 µM | 11.8 µM | 3.57 µM | 19.8 µM | 19.3 µM | 2.23 µM | – | – | – | – | – | – | – | – | – | –
CC[C@]1(c2ccc3c(c2)OCO3)C=[N+]([O-])O[C@H](OC2CCCC2(c2ccccc2)c2ccccc2)[C@@H]1OC(C)=O (some centres not stated) | 8.43 µM | > 100 µM | 4.1 µM | 22.7 µM | 8.68 µM | 3.42 µM | 10.1 µM | – | 3.2 µM | – | – | – | – | – | – | – | – | – | – | –
C=CCOC(C)(C)C1=CCC(C)CC1 (configuration not stated) | > 100 µM | – | > 100 µM | – | > 100 µM | > 100 µM | > 100 µM | > 100 µM | > 100 µM | > 100 µM | – | – | – | – | – | – | – | – | – | –
O=[N+]([O-])/C=C/c1cc(Cl)c(/C=C/[N+](=O)[O-])cc1Cl | 3.25 µM | – | 4.17 µM | 5.4 µM | 22.5 µM | 5.04 µM | – | 3.99 µM | 25 µM | – | – | – | – | – | – | – | – | – | – | –
O=C(Nc1ccc(-n2cc(-c3ccncc3)c(-c3ccc(O)c(Cl)c3)n2)cc1)Nc1cc(C(F)(F)F)cc(C(F)(F)F)c1 | – | 17.9 µM | 12.8 µM | 29.4 µM | 18.4 µM | 6.76 µM | 10.7 µM | 9.95 µM | 6.56 µM | 13.9 µM | 4.07 µM | 2.59 µM | 3.37 µM | 13.3 µM | 3.63 µM | 2.73 µM | 2.92 µM | 2.81 µM | 2.08 µM | –
CC(C)(C)OC(=O)N[C@H]1CC(=O)c2ccccc2N(CC(=O)O)C1=O | – | – | – | > 100 µM | > 100 µM | > 100 µM | > 100 µM | – | > 100 µM | 37.1 µM | – | – | – | – | – | – | – | – | – | –
COc1ccc(C(=CCC(C)C2CCC3[C@@H]4C(OC(C)=O)CC5CC(OC(C)=O)CC[C@]5(C)C4CC(OC(C)=O)[C@]23C)c2ccc(OC)cc2)cc1 (some centres not stated) | – | > 100 µM | > 100 µM | – | – | – | > 100 µM | > 100 µM | > 100 µM | – | – | – | – | – | – | – | – | – | – | –
Cc1ccc(S(=O)(=O)OCCN(CCOS(=O)(=O)c2ccc(C)cc2)c2ccc(C=O)cc2)cc1 | > 100 µM | > 100 µM | 44.4 µM | – | > 100 µM | 56 µM | 44.3 µM | > 100 µM | > 100 µM | 97.3 µM | – | – | – | – | – | – | – | – | – | –
CN1CCCc2nc3ccccc3n2C1 | – | > 100 µM | – | > 100 µM | > 100 µM | > 100 µM | > 100 µM | 68.8 µM | > 100 µM | > 100 µM | – | – | – | – | – | – | – | – | – | –
COc1cc(C2c3cc4c(cc3[C@@H](Nc3ccc(F)cc3)C3COC[C@H]23)OCO4)cc(OC)c1O (some centres not stated) | – | 20.7 µM | > 25 µM | – | – | – | > 25 µM | 13.1 µM | 5.32 µM | – | – | – | – | – | – | – | – | – | – | –
NCCCNc1nc2ccccc2c2c(=O)c3cc(Cl)ccc3sc12 | 46.2 µM | – | 3.18 µM | 74.2 µM | – | – | – | – | – | – | – | – | 1.75 µM | 8.54 µM | – | – | – | – | – | 13.5 µM
Cc1cc(-c2ccc(N=Nc3ccc4c(S(=O)(=O)O)cc(S(=O)(=O)O)c(N)c4c3O)c(C)c2)ccc1N=Nc1ccc2c(S(=O)(=O)O)cc(S(=O)(=O)O)c(N)c2c1O | – | > 100 µM | – | > 100 µM | > 100 µM | > 100 µM | > 100 µM | > 100 µM | > 100 µM | > 100 µM | – | – | – | – | – | – | – | – | – | –
CC1CC(c2ccccc2)=Nc2ccccc2S1 (configuration not stated) | – | > 100 µM | – | > 100 µM | > 100 µM | – | > 100 µM | > 100 µM | > 100 µM | – | – | – | – | – | – | – | – | – | – | –
COCOC1CCCC[C@@]1(OCCOCCO[C@@]1(c2ccccc2)CCCC[C@H]1OCOC)c1ccccc1 (some centres not stated) | – | > 100 µM | – | > 100 µM | > 100 µM | > 100 µM | > 100 µM | > 100 µM | > 100 µM | > 100 µM | – | – | – | – | – | – | – | – | – | –
CC(=O)C1(C(=O)C(=[N+]=[N-])S(=O)(=O)c2ccccc2)CC1 | > 100 µM | > 100 µM | > 100 µM | > 100 µM | > 100 µM | > 100 µM | – | > 100 µM | > 100 µM | > 100 µM | – | – | – | – | – | – | – | – | – | –
CC(C)C(NCc1c2ccccc2[n+](C)c2ccccc12)C(=O)O (configuration not stated) | – | 18.5 µM | – | 38.6 µM | 27.2 µM | 16.9 µM | 20.7 µM | 5.15 µM | 20.5 µM | 19.1 µM | – | – | – | – | – | – | – | – | – | –
COC(=O)C(Cc1ccccc1)NC(=O)C(CNC(=O)OCc1ccccc1)C(=O)OCc1ccccc1 (configuration not stated) | > 100 µM | > 100 µM | > 100 µM | > 100 µM | > 100 µM | > 100 µM | – | > 100 µM | > 100 µM and 80.2 µM | > 100 µM | – | > 100 µM and 44.4 µM | > 100 µM and 44.5 µM | – | – | – | – | – | > 100 µM and 28.6 µM | –
COC1=C(OC)C(=O)C(Cc2c(Cl)nc3sccn23)=C(C)C1=O | 27.5 µM | 34.1 µM | 21.8 µM | – | 29.2 µM | 25.8 µM | 18.8 µM | 15.7 µM | 25.4 µM | 13.7 µM | – | – | – | – | – | – | – | – | – | –
CN1C(c2ccccc2)CC(O)CC1c1ccccc1 (configuration not stated) | – | > 100 µM | – | > 100 µM | > 100 µM | > 100 µM | > 100 µM | > 100 µM | > 100 µM | > 100 µM | – | – | – | – | – | – | – | – | – | –
COc1ccc2oc(=O)c(-c3cc4c(c(C)n3)c(=O)oc3ccc(OC)cc34)cc2c1 | > 100 µM | > 100 µM | > 100 µM | > 100 µM | > 100 µM | > 100 µM | – | > 100 µM | > 100 µM | – | – | – | – | – | – | – | – | – | – | –
CC(=O)c1c(-c2ccc(Cl)cc2)c(C#N)c(=S)n(C2OC(CO)C(O)C(O)C2O)c1C (configuration not stated) | – | > 100 µM | > 100 µM | > 100 µM | > 100 µM | > 100 µM | > 100 µM | – | > 100 µM | > 100 µM | – | – | – | – | – | – | – | – | – | –
COc1c(OC2OC(CO)C(O)C(O)C2O)cc2c(c1OC)-c1ccc(OC)c(=O)cc1C(NC(C)=O)CC2 (configuration not stated) | – | > 100 µM | – | > 100 µM | > 100 µM | > 100 µM | > 100 µM | > 100 µM | > 100 µM | > 100 µM | – | – | – | – | – | – | – | – | – | –
C/C(CCN(C)C)=N/O | – | 6.97 µM | – | 63.9 µM | 25.5 µM | 2.04 µM | – | 11.4 µM | 81.5 µM | 10.8 µM | – | – | – | – | – | – | – | – | – | –
